The values below come from patent US9670213B2, “Pteridine ketone derivative and applications thereof as EGFR, BLK, and FLT3 inhibitor” (EAST CHINA UNIVERSITY OF SCIENCE AND TECHNOLOGY, priority 2012, dated 2017).

A value given as a limit tells only on which side of the number the result lay.

The term inhibition denotes the change of the read-out against control, counted positive when it falls.

One experiment concerns the target BRAF (Homo sapiens (Human), UniProt P15056). Kind of experiment: Kinase selectivity analysis (BRAF analysis). Type of experiment: biochemical. The settings on record: for inhibition at 1 µM: read-out: % inhibition (1 μM), 1 μM; for inhibition at 10 µM: read-out: % inhibition (10 μM), 10 μM. The method, then:
Kinase selectivity analysis: kinase selectivity experiment was performed by Shanghai ChemPartner using Caliper assay screening platform. All of kinases and other materials were purchased from commercial companies.
1. Preparation of 1× Kinase Buffer: 50 mM HEPES, pH 7.5, 10 mM MgCl2, 1 mM EGTA, 0.01% BRIJ-35.
2. Preparation of compounds for BRAF kinase test: 1) serial dilution of compound and preparation of stock solution plate. The compound was diluted in 100% DMSO to a concentration, which was 100 times of the highest concentration used in reaction, and 100 μL of the compound solution as said above was transferred into wells of 96-well plate. 30 μL of compound solution was transferred into 60 μL of 100% DMSO in the adjacent well, and the above operation was repeated for sequentially diluting the compound. 100 μL of 100% DMSO was added into two blank wells as no-compound and no-enzyme control, the plate was marked as stock solution plate. 2) Preparation of temporary plate. 4 μL of compound solution from the stock solution plate was transferred to another 96-well plate, 96 μL of 1× kinase buffer was added into each well, and the temporary plate was placed on a shaker and shaken for 10 mins for uniformly mixing the compound. 3) Preparation of assay plate. 2.5 μL of solution from each well of the 96-well temporary plate was added into a 384-well plate, and the experiment was independently repeated.
3. Kinase BRAF reaction: 1) Preparation of 2× kinase solution. BRAF solution was prepared in 1× kinase buffer, the concentration of which was 2 times of the final concentration in the test. 5 μL of kinase solution was added into each well of the assay plate (except for control well, into which 5 μL of 1× kinase buffer was added), and the assay plate was shaken. 2) Preparation of 4× substrate solution. Fluorescein-MAP2K1, ATP substrate solution was prepared in 1× kinase buffer, the concentration of which was 4 times of the final concentration in the test. 2.5 μL of substrate solution was added into each well of the assay plate to start the reaction, and the assay plate was shaken. 3) The kinase reaction was conducted by incubating at room temperature for 1 hour.
4. Kinase assay. Test solution was prepared in antibody dilution buffer, the concentration of which was 2 times of the following final concentration: antibody 2 nM, EDTA […]. 10 μL of test solution was added into each well of the assay plate to quench the assay. […]
5. Read data: the data was read on Envision (excitation at 340 nm, emission at 520 nm, […]).
6. […] The rate of RFU […] was calculated and converted into inhibition rate % Inhibition rate %=(maximum−rate of sample)/(maximum−minimum)*100, wherein “maximum” represents DMSO control rate, and “minimum” represents the no-enzyme control rate. […]

For the next experiment, the target named is EGFR-L858R (Homo sapiens (Human), UniProt P00533, L858R). Kind of experiment: In vitro EGFR kinase activity assay (Z'-Lyte). The settings on record: read-out: Inhibitory activity on EGFR kinase (IC50, nM) L858R. Type of experiment: biochemical.
A further experiment concerns the target wild-type EGFR (Homo sapiens (Human), UniProt P00533). As to the kind of experiment: In vitro EGFR kinase activity assay (Z'-Lyte). Type of experiment: biochemical. As to conditions: EGFR WT; read-out: Inhibitory activity on EGFR kinase (IC50, nM) WT.
A further experiment concerns the target FLT3 (Homo sapiens (Human), UniProt P36888). As to the kind of experiment: FLT3 kinase activity assay (Caliper). The settings on record: read-out: Inhibitory activity on kinase (IC50, nM) FLT3. It counts as biochemical.
For experiment [1], the system named is H1975 (non-small cell lung cancer cells, EGFR L858R/T790M). As to the kind of experiment: Cell proliferation and growth inhibition analysis. It counts as cell-based. The settings on record: Homo sapiens, NCI-H1975, 72 hours, read-out: Inhibitory activity on cell proliferation (IC50, μM) H1975.
The target of a further experiment is BLK (Homo sapiens (Human), UniProt P51451). As to the kind of experiment: BLK kinase activity assay (Caliper). Type of experiment: biochemical. The settings on record: read-out: Inhibitory activity on kinase (IC50, nM) BLK.
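For Inhibitory activity on EGFR kinase (IC50, nM) L858R in this document: Cell-free kinase reaction with peptide substrate and ATP, 1.5 h at room temperature, then development step cleaving non-phosphorylated peptide, 10-point dilution series 0.051–1000 nM, phosphopeptide as 100% phosphorylation control.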
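For Inhibitory activity on EGFR kinase (IC50, nM) WT in this document: Ten-point dose series from 5.1×10^−11 to 1.0×10^−6 mol/L, kinase reaction 1.5 h at room temperature, then 1 h development cleaving unphosphorylated peptide, phosphopeptide as 100% phosphorylation control.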

BRAF, sequence (P15056 whole entry, species assumed): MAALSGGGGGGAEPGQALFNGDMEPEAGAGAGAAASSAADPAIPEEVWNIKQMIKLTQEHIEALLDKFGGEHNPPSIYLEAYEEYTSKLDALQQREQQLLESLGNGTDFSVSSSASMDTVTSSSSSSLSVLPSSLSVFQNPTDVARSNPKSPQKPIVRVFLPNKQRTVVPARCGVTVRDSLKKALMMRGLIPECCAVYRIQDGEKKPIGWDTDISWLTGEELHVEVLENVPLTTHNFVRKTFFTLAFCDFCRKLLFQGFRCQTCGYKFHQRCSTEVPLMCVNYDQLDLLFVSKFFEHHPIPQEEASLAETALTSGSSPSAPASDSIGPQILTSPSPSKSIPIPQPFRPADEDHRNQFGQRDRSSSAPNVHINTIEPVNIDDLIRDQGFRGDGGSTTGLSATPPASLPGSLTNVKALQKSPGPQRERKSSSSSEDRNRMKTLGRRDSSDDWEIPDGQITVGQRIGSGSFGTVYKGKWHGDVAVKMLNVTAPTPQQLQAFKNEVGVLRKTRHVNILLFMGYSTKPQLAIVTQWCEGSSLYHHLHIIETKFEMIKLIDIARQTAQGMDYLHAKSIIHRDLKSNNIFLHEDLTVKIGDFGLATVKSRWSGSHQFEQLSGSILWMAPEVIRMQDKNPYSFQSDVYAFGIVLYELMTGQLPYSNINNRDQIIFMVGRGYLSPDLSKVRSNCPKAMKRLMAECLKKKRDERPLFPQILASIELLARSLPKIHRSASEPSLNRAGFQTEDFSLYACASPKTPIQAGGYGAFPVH
wild-type EGFR, sequence (P00533 25-1210): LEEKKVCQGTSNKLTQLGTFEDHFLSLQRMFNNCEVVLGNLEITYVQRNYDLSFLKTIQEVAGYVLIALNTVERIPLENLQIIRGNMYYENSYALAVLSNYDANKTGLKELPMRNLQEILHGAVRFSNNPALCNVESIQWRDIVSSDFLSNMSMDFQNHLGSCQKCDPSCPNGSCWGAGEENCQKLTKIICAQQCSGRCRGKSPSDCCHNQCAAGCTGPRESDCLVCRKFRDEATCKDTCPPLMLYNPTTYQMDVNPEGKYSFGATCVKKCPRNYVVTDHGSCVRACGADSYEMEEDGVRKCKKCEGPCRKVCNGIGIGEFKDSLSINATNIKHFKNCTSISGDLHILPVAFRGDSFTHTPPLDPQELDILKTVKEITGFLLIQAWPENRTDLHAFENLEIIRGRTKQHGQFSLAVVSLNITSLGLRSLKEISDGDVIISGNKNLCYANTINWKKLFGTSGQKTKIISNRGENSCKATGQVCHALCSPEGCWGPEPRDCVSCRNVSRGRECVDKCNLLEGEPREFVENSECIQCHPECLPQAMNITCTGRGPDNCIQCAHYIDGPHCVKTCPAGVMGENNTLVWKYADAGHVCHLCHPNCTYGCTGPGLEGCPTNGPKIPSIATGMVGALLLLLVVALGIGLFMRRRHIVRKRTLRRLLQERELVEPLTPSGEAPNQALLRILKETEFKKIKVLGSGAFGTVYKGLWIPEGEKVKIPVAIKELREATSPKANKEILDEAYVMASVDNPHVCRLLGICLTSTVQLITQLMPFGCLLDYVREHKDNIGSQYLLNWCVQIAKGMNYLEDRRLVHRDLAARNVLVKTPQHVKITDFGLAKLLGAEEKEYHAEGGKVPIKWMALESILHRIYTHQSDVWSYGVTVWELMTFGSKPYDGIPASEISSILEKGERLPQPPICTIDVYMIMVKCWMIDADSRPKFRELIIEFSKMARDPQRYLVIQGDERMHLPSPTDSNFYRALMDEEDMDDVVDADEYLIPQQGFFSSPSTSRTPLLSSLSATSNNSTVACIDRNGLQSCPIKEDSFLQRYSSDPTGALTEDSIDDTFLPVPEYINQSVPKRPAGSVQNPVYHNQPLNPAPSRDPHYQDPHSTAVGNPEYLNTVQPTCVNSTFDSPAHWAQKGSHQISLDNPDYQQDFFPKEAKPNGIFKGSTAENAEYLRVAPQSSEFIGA
BLK, sequence (P51451 whole entry): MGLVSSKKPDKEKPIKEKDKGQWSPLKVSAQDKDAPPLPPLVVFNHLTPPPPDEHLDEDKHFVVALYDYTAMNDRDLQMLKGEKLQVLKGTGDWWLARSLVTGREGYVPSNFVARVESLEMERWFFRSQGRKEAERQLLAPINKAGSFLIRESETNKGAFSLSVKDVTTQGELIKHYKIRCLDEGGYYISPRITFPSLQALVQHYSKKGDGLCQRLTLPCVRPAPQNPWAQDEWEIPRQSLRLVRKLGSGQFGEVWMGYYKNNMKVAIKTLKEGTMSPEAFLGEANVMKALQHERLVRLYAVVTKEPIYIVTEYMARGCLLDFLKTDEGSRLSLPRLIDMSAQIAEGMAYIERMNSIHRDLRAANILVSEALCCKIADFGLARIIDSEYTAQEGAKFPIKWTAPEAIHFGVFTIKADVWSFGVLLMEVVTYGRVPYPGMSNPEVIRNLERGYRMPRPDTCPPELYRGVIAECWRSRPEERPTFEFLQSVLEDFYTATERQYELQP
EGFR-L858R, sequence (P00533 25-1210 L858R): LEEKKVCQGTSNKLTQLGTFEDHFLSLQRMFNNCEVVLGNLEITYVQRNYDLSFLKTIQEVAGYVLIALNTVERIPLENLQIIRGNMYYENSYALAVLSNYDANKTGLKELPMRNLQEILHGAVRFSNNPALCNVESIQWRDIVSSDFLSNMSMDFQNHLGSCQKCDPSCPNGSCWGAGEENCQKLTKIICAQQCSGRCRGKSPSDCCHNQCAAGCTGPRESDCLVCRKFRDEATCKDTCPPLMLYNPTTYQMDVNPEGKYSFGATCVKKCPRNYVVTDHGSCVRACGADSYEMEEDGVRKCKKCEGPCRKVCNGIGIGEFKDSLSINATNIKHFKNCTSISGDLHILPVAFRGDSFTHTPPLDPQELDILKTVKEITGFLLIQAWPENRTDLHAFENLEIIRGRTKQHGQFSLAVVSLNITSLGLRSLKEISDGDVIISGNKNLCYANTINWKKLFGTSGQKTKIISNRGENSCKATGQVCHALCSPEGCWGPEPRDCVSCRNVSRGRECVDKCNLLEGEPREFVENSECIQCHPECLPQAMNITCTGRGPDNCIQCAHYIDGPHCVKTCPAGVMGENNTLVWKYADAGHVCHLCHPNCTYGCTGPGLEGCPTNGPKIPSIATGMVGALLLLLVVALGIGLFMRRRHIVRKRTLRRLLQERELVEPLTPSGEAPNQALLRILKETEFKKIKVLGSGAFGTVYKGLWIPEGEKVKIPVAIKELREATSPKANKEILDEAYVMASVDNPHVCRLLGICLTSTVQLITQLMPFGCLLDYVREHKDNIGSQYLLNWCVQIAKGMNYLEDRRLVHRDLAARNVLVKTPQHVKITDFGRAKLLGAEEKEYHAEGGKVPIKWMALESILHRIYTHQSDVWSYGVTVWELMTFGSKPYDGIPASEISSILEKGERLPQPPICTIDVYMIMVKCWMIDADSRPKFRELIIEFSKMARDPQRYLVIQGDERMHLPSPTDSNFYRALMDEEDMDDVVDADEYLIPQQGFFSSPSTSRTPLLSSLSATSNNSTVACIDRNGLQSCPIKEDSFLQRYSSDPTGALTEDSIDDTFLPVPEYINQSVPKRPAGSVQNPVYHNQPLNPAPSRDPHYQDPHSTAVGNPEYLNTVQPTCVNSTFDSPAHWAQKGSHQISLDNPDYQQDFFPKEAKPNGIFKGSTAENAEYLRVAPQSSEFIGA
FLT3, sequence (P36888 27-993): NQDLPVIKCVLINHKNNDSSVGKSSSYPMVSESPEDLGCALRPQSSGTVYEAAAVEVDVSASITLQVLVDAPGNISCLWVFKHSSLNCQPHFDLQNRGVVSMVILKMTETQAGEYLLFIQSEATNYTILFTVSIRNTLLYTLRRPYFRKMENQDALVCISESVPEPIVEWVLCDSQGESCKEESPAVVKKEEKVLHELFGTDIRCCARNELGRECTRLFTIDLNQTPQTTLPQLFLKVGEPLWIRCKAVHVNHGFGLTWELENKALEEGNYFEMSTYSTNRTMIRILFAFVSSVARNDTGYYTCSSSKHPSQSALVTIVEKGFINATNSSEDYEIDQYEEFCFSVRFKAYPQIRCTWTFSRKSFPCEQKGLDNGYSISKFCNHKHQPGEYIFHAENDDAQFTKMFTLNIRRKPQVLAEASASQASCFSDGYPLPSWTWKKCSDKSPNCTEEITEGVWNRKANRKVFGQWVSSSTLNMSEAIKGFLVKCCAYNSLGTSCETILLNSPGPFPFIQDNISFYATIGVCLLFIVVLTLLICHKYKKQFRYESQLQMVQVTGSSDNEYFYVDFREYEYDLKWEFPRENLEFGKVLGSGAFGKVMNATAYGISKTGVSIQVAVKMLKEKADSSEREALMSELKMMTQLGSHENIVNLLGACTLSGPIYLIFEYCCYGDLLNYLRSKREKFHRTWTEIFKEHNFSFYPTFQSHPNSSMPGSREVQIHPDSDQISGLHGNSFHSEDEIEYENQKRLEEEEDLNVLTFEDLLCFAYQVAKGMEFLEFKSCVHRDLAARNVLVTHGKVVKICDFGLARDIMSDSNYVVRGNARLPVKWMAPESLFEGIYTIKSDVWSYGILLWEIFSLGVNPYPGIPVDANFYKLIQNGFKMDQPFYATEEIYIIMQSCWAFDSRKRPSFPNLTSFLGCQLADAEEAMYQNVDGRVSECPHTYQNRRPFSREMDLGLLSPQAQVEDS

For `C=CC(=O)Nc1cccc(-n2c(=O)cnc3cnc(Nc4ccc(N5CCN(C)CC5)cc4)nc32)c1` [Compound 020, N-(3-(2-(4-(4-methyl-1-piperazinyl)-phenylamino)-7-oxo-8(7H)-pteridin-yl)phenyl) acrylamide], the inhibition at 1 µM at BRAF was -7%. Further, the inhibition at 10 µM at BRAF was 21%. For the same compound, the IC50 on EGFR-L858R was 1.2 nM; at wild-type EGFR, 1.47 nM; at FLT3, 322 nM; in experiment [1], 0.043 µM; on BLK, under 14 nM.

For the compound `C=CC(=O)Nc1cccc(-n2c(=O)cnc3cnc(Nc4ccc(N5CCN(C)CC5)cc4OC)nc32)c1` [Compound 032, N-(3-(2-(2-methoxy-4-(4-methyl-1-piperazinyl)-phenylamino)-7-oxo-8(7H)-pteridin-yl)phenyl)acrylamide], the inhibition at 1 µM at BRAF was found to be 0.35%. At BRAF, the inhibition at 10 µM was -5.2%. The IC50 at EGFR-L858R was determined as 2.36 nM; at wild-type EGFR, 3.67 nM; at FLT3, 1170 nM; in experiment [1], 0.038 µM; on BLK, 463 nM.
